Source: patent US12599672B2, “KRAS proteolysis targeting chimeras” (PAQ Therapeutics Inc., priority 2023, dated 2026)

What was measured:
Type in all cases: cell-based
KRAS = target: T1, KRAS (Homo sapiens, UniProt P01116); assay: KRASamp MSD assay; details: KE39 (KRAS amplified) cells, treated with test compounds for 24 hr, MSD readout of KRAS degradation
T1 construct: endogenous in cells; host or cells: KE39 (KRAS amplified) cells
Procedure, shortened: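 Degradation DC50 derived by curve fitting, with KRAS levels quantified by MSD electrochemiluminescence (capture/detection antibodies, recombinant WT KRAS standard). Lysates prepared from KE39 cells (KRAS amplified) exposed to test compounds for 24 hr.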

KRAS G12V = target: T2, KRAS G12V (Homo sapiens, UniProt P01116, G12V); assay: KRAS G12V HiBit assay; details: SW620-KRAS (G12V)-HiBit-KI cells, compound treatment for 24 hours, class symbols
T2 construct: SW620-KRAS (G12V)-HiBit-KI cell (Pharmaron); host or cells: SW620-KRAS (G12V)-HiBit-KI cells (HiBiT knock-in at the endogenous KRAS locus)
Procedure, shortened: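 Luminescence from lytic Nano-Glo HiBiT detection with LgBiT read KRAS G12V levels after 24 h compound exposure. Dilutions were 10-point, 3-fold, from a 0.3 mM DMSO stock. Degradation activity was normalised to cells given 0.1% DMSO alone.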

KRAS G12D = target: T3, KRAS G12D (Homo sapiens, UniProt P01116, G12D); assay: KRAS G12D HiBit assay; details: AsPc-1-KRAS (G12D)-HiBit-KI cell, compound treatment for 24 hours, absolute DC50
T3 construct: AsPc-1-KRAS (G12D)-HiBit-KI cell (Pharmaron); host or cells: AsPc-1-KRAS (G12D)-HiBit-KI cells (HiBiT knock-in at the endogenous KRAS locus)
Procedure, shortened: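 HiBiT luminescence, detected by adding lytic buffer, substrate and LgBiT protein, served as the KRAS G12D read-out. Compounds, serially diluted 3-fold over 10 points from 0.3 mM DMSO stock, were on cells for 24 h; percent inhibition normalized to cells given 0.1% DMSO only.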

[1] = numeric bounds given in place of class symbols

T2 sequence (P01116 1-188 isoform P01116-2 G12V): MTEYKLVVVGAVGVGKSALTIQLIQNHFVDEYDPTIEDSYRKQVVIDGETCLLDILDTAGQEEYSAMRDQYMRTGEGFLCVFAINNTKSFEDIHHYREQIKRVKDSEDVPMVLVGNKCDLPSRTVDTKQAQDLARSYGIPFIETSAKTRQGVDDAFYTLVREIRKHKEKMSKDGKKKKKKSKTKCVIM
T1 sequence (P01116 1-188 isoform P01116-2): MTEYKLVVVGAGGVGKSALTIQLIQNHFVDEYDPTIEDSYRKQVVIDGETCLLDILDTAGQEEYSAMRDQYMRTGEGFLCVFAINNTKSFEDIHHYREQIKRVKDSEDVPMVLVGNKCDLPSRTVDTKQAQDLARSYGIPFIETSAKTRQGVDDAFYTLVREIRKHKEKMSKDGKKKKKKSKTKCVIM
T3 sequence (P01116 1-188 isoform P01116-2 G12D): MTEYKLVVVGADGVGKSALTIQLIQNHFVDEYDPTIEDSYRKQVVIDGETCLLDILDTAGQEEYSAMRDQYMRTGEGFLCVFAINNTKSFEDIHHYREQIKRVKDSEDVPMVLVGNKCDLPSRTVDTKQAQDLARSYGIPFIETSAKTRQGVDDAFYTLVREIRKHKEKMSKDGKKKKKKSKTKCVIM

DC50 (KRAS) | DC50 (KRAS G12V) | DC50 (KRAS G12D; [1]) | DC50 (KRAS G12D; class symbols) | SMILES
≥ 0.01 µM | > 0.1 µM | > 0.1 µM | – | C#Cc1c(F)ccc2cc(O)cc(-c3ncc4c(N5CCC[C@@](C)(O)C5)nc(OC[C@@]56CCCN5[C@H](COC(=O)NC5CN(C7CCN(c8ccc9c(c8)n(C)c(=O)n9C8CCC(=O)NC8=O)CC7)C5)CC6)nc4c3F)c12 (stereo partly drawn) [Compound 325, ((3S,7aS)-7a-(((7-(8-ethynyl-7-fluoro-3-hydroxynaphthalen-1-yl)-8-fluoro-4-((R)-3-hydroxy-3-methylpiperidin-1-yl)pyrido[4,3-d]pyrimidin-2-yl)oxy)methyl)hexahydro-1H-pyrrolizin-3-yl)methyl (1-(1-(1-(2,6-dioxopiperidin-3-yl)-3-methyl-2-oxo-2,3-dihydro-1H-benzo[d]imidazol-5-yl)piperidin-4-yl)azetidin-3-yl)carbamate]
0.001 to 0.01 µM | < 0.01 µM | – | < 0.1 µM | CCc1c(F)ccc2cc(O)cc(-c3ncc4c(N5CCC[C@@](C)(O)C5)nc(OC[C@]56CCCN5[C@H](COC(=O)N5CCC(CN7CCC(c8ccc9c(c8)n(C)c(=O)n9C8CCC(=O)NC8=O)CC7)CC5)CC6)nc4c3F)c12 (stereo partly drawn) [Compound 390, ((3S,7aR)-7a-(((7-(8-ethyl-7-fluoro-3-hydroxynaphthalen-1-yl)-8-fluoro-4-((R)-3-hydroxy-3-methylpiperidin-1-yl)pyrido[4,3-d]pyrimidin-2-yl)oxy)methyl)hexahydro-1H-pyrrolizin-3-yl)methyl 4-((4-(1-(2,6-dioxopiperidin-3-yl)-3-methyl-2-oxo-2,3-dihydro-1H-benzo[d]imidazol-5-yl)piperidin-1-yl)methyl)piperidine-1-carboxylate]
< 0.001 µM | < 0.01 µM | – | < 0.1 µM | C#Cc1c(F)ccc2cc(O)cc(-c3ncc4c(N5CCC[C@@](C)(O)C5)nc(OC[C@@]56CCCN5[C@H](COC(=O)N5CCC(CN7CCC(c8cc9c(cc8F)n(C8CCC(=O)NC8=O)c(=O)n9C)CC7)CC5)CC6)nc4c3F)c12 (stereo partly drawn) [Compound 407, ((3S,7aS)-7a-(((7-(8-ethynyl-7-fluoro-3-hydroxynaphthalen-1-yl)-8-fluoro-4-((R)-3-hydroxy-3-methylpiperidin-1-yl)pyrido[4,3-d]pyrimidin-2-yl)oxy)methyl)hexahydro-1H-pyrrolizin-3-yl)methyl 4-((4-(1-(2,6-dioxopiperidin-3-yl)-6-fluoro-3-methyl-2-oxo-2,3-dihydro-1H-benzo[d]imidazol-5-yl)piperidin-1-yl)methyl)piperidine-1-carboxylate]
≥ 0.01 µM | > 0.1 µM | > 0.1 µM | – | C#Cc1c(F)ccc2cc(O)cc(-c3ncc4c(N5CCC[C@@](C)(O)C5)nc(OC[C@@]56CCCN5[C@H](COC(=O)NC5CCN(C7CCN(c8ccc9c(c8)n(C)c(=O)n9C8CCC(=O)NC8=O)CC7)CC5)CC6)nc4c3F)c12 (stereo partly drawn) [Compound 324, ((3S,7aS)-7a-(((7-(8-ethynyl-7-fluoro-3-hydroxynaphthalen-1-yl)-8-fluoro-4-((R)-3-hydroxy-3-methylpiperidin-1-yl)pyrido[4,3-d]pyrimidin-2-yl)oxy)methyl)hexahydro-1H-pyrrolizin-3-yl)methyl (1′-(1-(2,6-dioxopiperidin-3-yl)-3-methyl-2-oxo-2,3-dihydro-1H-benzo[d]imidazol-5-yl)-[1,4′-bipiperidin]-4-yl)carbamate]
< 0.001 µM | < 0.01 µM | – | < 0.1 µM | Cn1c(=O)n(C2CCC(=O)NC2=O)c2ccc(C3CCN(CC4CCN(C(=O)OC[C@@H]5CC[C@]6(COc7nc(N8CCC[C@@](C)(O)C8)c8cnc(-c9cc(O)cc%10ccc(F)c(Cl)c9%10)c(F)c8n7)CCCN56)CC4)CC3)cc21 (stereo partly drawn) [Compound 409, ((3S,7aS)-7a-(((7-(8-chloro-7-fluoro-3-hydroxynaphthalen-1-yl)-8-fluoro-4-((R)-3-hydroxy-3-methylpiperidin-1-yl)pyrido[4,3-d]pyrimidin-2-yl)oxy)methyl)hexahydro-1H-pyrrolizin-3-yl)methyl 4-((4-(1-(2,6-dioxopiperidin-3-yl)-3-methyl-2-oxo-2,3-dihydro-1H-benzo[d]imidazol-5-yl)piperidin-1-yl)methyl)piperidine-1-carboxylate]
< 0.001 µM | < 0.01 µM | – | < 0.1 µM | CCc1c(F)ccc2cc(O)cc(-c3ncc4c(N5CCC[C@@](C)(O)C5)nc(OC[C@@]56CCCN5[C@H](COC(=O)c5ccc(CN7CCC(c8ccc9c(c8)n(C)c(=O)n9C8CCC(=O)NC8=O)CC7)cc5)CC6)nc4c3F)c12 (stereo partly drawn) [Compound 154]
< 0.001 µM | < 0.01 µM | – | < 0.1 µM | Cn1c(=O)n(C2CCC(=O)NC2=O)c2ccc(C3CCN(C4CC5(CCN(C(=O)OC[C@@H]6CC[C@]7(COc8nc(N9CCC[C@@](C)(O)C9)c9cnc(-c%10cc(O)cc%11ccc(F)cc%10%11)c(F)c9n8)CCCN67)CC5)C4)CC3)cc21 (stereo partly drawn) [Compound 438, ((3S,7aS)-7a-(((8-fluoro-7-(7-fluoro-3-hydroxynaphthalen-1-yl)-4-((R)-3-hydroxy-3-methylpiperidin-1-yl)pyrido[4,3-d]pyrimidin-2-yl)oxy)methyl)hexahydro-1H-pyrrolizin-3-yl)methyl 2-(4-(1-(2,6-dioxopiperidin-3-yl)-3-methyl-2-oxo-2,3-dihydro-1H-benzo[d]imidazol-5-yl)piperidin-1-yl)-7-azaspiro[3.5]nonane-7-carboxylate]
≥ 0.01 µM | > 0.1 µM | > 0.1 µM | – | C#Cc1c(F)ccc2cc(O)cc(-c3ncc4c(N5CCC[C@@](C)(O)C5)nc(OC[C@@]56CCCN5[C@H](COC(=O)N5CCC57CCN(C5CCN(c8ccc9c(c8)n(C)c(=O)n9C8CCC(=O)NC8=O)CC5)CC7)CC6)nc4c3F)c12 (stereo partly drawn) [Compound 326, ((3S,7aS)-7a-(((7-(8-ethynyl-7-fluoro-3-hydroxynaphthalen-1-yl)-8-fluoro-4-((R)-3-hydroxy-3-methylpiperidin-1-yl)pyrido[4,3-d]pyrimidin-2-yl)oxy)methyl)hexahydro-1H-pyrrolizin-3-yl)methyl 7-(1-(1-(2,6-dioxopiperidin-3-yl)-3-methyl-2-oxo-2,3-dihydro-1H-benzo[d]imidazol-5-yl)piperidin-4-yl)-1,7-diazaspiro[3.5]nonane-1-carboxylate]
< 0.001 µM | < 0.01 µM | – | < 0.1 µM | CCc1c(F)ccc2cc(O)cc(-c3ncc4c(N5CCC[C@@](C)(O)C5)nc(OC[C@@]56CCCN5[C@H](COC(=O)N5CCC(C#CC7CCN(c8ccc9c(c8)n(C)c(=O)n9C8CCC(=O)NC8=O)CC7)CC5)CC6)nc4c3F)c12 (stereo partly drawn) [Compound 500, [(3S,7aS)-7a-({[7-(8-ethyl-7-fluoro-3-hydroxynaphthalen-1-yl)-8-fluoro-4-[(3R)-3-hydroxy-3-methylpiperidin-1-yl]pyrido[4,3-d]pyrimidin-2-yl]oxy}methyl)-hexahydropyrrolizin-3-yl]methyl 4-(2-{1-[1-(2,6-dioxopiperidin-3-yl)-3-methyl-2-oxo-1,3-benzodiazol-5-yl]piperidin-4-yl}ethynyl) piperidine-1-carboxylate]
0.001 to 0.01 µM | > 0.1 µM | > 0.1 µM | – | CCc1c(F)ccc2cc(O)cc(-c3ncc4c(N5CCC[C@H](CO)C5)nc(OC[C@@]56CCCN5[C@H](COC(=O)N5CCC(CN7CCC(c8ccc9c(c8)n(C)c(=O)n9C8CCC(=O)NC8=O)CC7)CC5)CC6)nc4c3F)c12 (stereo partly drawn) [Compound 339, ((3S,7aS)-7a-(((7-(8-ethyl-7-fluoro-3-hydroxynaphthalen-1-yl)-8-fluoro-4-((S)-3-(hydroxymethyl)piperidin-1-yl)pyrido[4,3-d]pyrimidin-2-yl)oxy)methyl)hexahydro-1H-pyrrolizin-3-yl)methyl 4-((4-(1-(2,6-dioxopiperidin-3-yl)-3-methyl-2-oxo-2,3-dihydro-1H-benzo[d]imidazol-5-yl)piperidin-1-yl)methyl)piperidine-1-carboxylate]
≥ 0.01 µM | > 0.1 µM | > 0.1 µM | – | CCc1c(F)ccc2cc(O)cc(-c3ncc4c(N5CCC[C@@](C)(O)C5)nc(OC[C@@]56CCCN5[C@@H](COC(=O)N5CCC(CCOc7ccc8c(c7)n(C)c(=O)n8C7CCC(=O)NC7=O)CC5)CC6)nc4c3F)c12 (stereo partly drawn) [Compound 315, ((3R,7aS)-7a-(((7-(8-ethyl-7-fluoro-3-hydroxynaphthalen-1-yl)-8-fluoro-4-((R)-3-hydroxy-3-methylpiperidin-1-yl)pyrido[4,3-d]pyrimidin-2-yl)oxy)methyl)hexahydro-1H-pyrrolizin-3-yl)methyl 4-(2-((1-(2,6-dioxopiperidin-3-yl)-3-methyl-2-oxo-2,3-dihydro-1H-benzo[d]imidazol-5-yl)oxy)ethyl)piperidine-1-carboxylate]
